Several values for one entry are separate records, joined by “and”; a condition that tells them apart may be missing. Equal entries are not always repeated. Toxic doses and inconclusive results are not listed. Rule as the data show it: active = T/C of 150% or more; inactive = T/C below 125%.
System: L1210 leukemia ip in BDF1 mice, survival T/C
Assay: NCI In Vivo Anticancer Drug Screen. Data for tumor model L1210 Leukemia (intraperitoneal) in B6D2F1 (BDF1) mice
Details: endpoint: mean survival time, higher = longer survival
Outline: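 Transplanted-tumor mice were given test agent; controls received vehicle only. Survival readings from the two groups were divided (treated over control).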

[1] = dose: 100.0 mg/kg/injection, schedule: Q01DX009 (ip), vehicle: saline
[2] = dose: 200.0 mg/kg/injection, schedule: Q01DX009 (ip), vehicle: saline
[3] = dose: 100.0 mg/kg/injection, schedule: Q01DX001 (ip), vehicle: saline
[4] = dose: 200.0 mg/kg/injection, schedule: Q01DX001 (ip), vehicle: saline
[5] = dose: 400.0 mg/kg/injection, schedule: Q01DX001 (ip), vehicle: saline
[6] = dose: 25.0 mg/kg/injection, schedule: Q04DX003 (ip), vehicle: Klucel (hydroxypropylcellulose) (HPC)
[7] = dose: 50.0 mg/kg/injection, schedule: Q04DX003 (ip), vehicle: Klucel (hydroxypropylcellulose) (HPC)
[8] = dose: 100.0 mg/kg/injection, schedule: Q04DX003 (ip), vehicle: Klucel (hydroxypropylcellulose) (HPC)
[9] = dose: 200.0 mg/kg/injection, schedule: Q04DX003 (ip), vehicle: Klucel (hydroxypropylcellulose) (HPC)
[10] = dose: 200.0 mg/kg/injection, schedule: Q04DX002 (ip), vehicle: saline with Tween-80
[11] = dose: 400.0 mg/kg/injection, schedule: Q04DX002 (ip), vehicle: saline with Tween-80
[12] = dose: 100.0 mg/kg/injection, schedule: Q04DX002 (ip), vehicle: saline with Tween-80
[13] = dose: 400.0 mg/kg/injection, schedule: Q04DX003 (ip), vehicle: Klucel (hydroxypropylcellulose) (HPC)
[14] = dose: 200.0 mg/kg/injection, schedule: Q01DX009 (ip), vehicle: saline sonified
[15] = dose: 100.0 mg/kg/injection, schedule: Q01DX001 (ip), vehicle: saline with Tween-80
[16] = dose: 400.0 mg/kg/injection, schedule: Q01DX001 (ip), vehicle: saline with Tween-80

Measured: T/C

Cc1ccc(NC(=O)Nc2cccc3ccccc23)cc1
inactive: dose: 12.0 mg/kg/injection, schedule: Q01DX009 (ip), vehicle: gum acacia 108 % of control | dose: 12.5 mg/kg/injection, schedule: Q04DX003 (ip), vehicle: gum acacia 91 % of control | dose: 25.0 mg/kg/injection, schedule: Q01DX009 (ip), vehicle: gum acacia 103 % of control | dose: 25.0 mg/kg/injection, schedule: Q04DX003 (ip), vehicle: gum acacia 93 % of control | dose: 50.0 mg/kg/injection, schedule: Q01DX009 (ip), vehicle: gum acacia 94 % of control | dose: 50.0 mg/kg/injection, schedule: Q04DX003 (ip), vehicle: gum acacia 98 % of control

CC1(C#N)CC(C#N)Nc2ccccc2N1 (stereo not drawn)
inactive: [1] 104 % of control | [2] 98 % of control

CCCNC(=O)c1cccc2c1-c1ccccc1C2=O
inactive: dose: 100.0 mg/kg/injection, schedule: Q01DX001 (ip), vehicle: other 93 % of control | dose: 200.0 mg/kg/injection, schedule: Q01DX001 (ip), vehicle: other 93 % of control | dose: 400.0 mg/kg/injection, schedule: Q01DX001 (ip), vehicle: other 87 % of control

O=c1ccc(=O)n(CCc2ccccn2)[nH]1
inactive: dose: 50.0 mg/kg/injection, schedule: Q01DX001 (ip), vehicle: saline 97 % of control | [3] 97 % of control | [4] 94 % of control | [5] 97 % of control

NNC(=O)C1CC2C(=O)NNC(=O)C2C1C(=O)O (stereo not drawn)
inactive: [3] 102 % of control | [4] 107 % of control | [5] 113 % of control

O=C(O)c1ccc2c(ccc3ccc4ccccc4c32)c1
inactive: dose: 12.5 mg/kg/injection, schedule: Q04DX003 (ip), vehicle: Klucel (hydroxypropylcellulose) (HPC) 100 % of control | [6] 89 % of control | [7] 96 % of control | [8] 97 % of control | [9] 106 % of control

N#CCCCCC(=O)c1ccc(O)cc1O
inactive: dose: 50.0 mg/kg/injection, schedule: Q01DX001 (ip), vehicle: Klucel (hydroxypropylcellulose) (HPC) 97 % of control | dose: 100.0 mg/kg/injection, schedule: Q01DX001 (ip), vehicle: Klucel (hydroxypropylcellulose) (HPC) 105 % of control | dose: 200.0 mg/kg/injection, schedule: Q01DX001 (ip), vehicle: Klucel (hydroxypropylcellulose) (HPC) 101 % of control

[Co+3].[NH-]CC(=O)O.[NH-]CC(=O)O.[NH-]CC(=O)O
inactive: [10] 122 % of control | [11] 115 % of control

CCN(CC)CN(CC)CC
inactive: dose: 25.0 mg/kg/injection, schedule: Q04DX002 (ip), vehicle: saline with Tween-80 103 % of control | dose: 50.0 mg/kg/injection, schedule: Q04DX002 (ip), vehicle: saline with Tween-80 100 % of control | [12] 98 % of control and 103 % of control

Nc1ccc(C(=O)/C=C/c2ccccn2)cc1
inactive: dose: 50.0 mg/kg/injection, schedule: Q01DX001 (ip), vehicle: carboxymethylcellulose (CMC) 97 % of control | dose: 100.0 mg/kg/injection, schedule: Q01DX001 (ip), vehicle: carboxymethylcellulose (CMC) 103 % of control | dose: 200.0 mg/kg/injection, schedule: Q01DX001 (ip), vehicle: carboxymethylcellulose (CMC) 105 % of control | dose: 400.0 mg/kg/injection, schedule: Q01DX001 (ip), vehicle: carboxymethylcellulose (CMC) 103 % of control

CCOC(=O)C1(C(=O)OCC)CCC2Nc3ccccc3CC(=O)N21 (stereo not drawn)
inactive: [6] 101 % of control | [7] 94 % of control | [8] 100 % of control

C=CCOc1ccc2c(C)cc(=O)oc2c1C
inactive: dose: 100.0 mg/kg/injection, schedule: Q01DX008 (ip), vehicle: Klucel (hydroxypropylcellulose) (HPC) 93 % of control | dose: 100.0 mg/kg/injection, schedule: Q01DX009 (ip), vehicle: Klucel (hydroxypropylcellulose) (HPC) 94 % of control | [8] 96 % of control | dose: 200.0 mg/kg/injection, schedule: Q01DX008 (ip), vehicle: Klucel (hydroxypropylcellulose) (HPC) 88 % of control | dose: 200.0 mg/kg/injection, schedule: Q01DX009 (ip), vehicle: Klucel (hydroxypropylcellulose) (HPC) 96 % of control | [9] 96 % of control | dose: 400.0 mg/kg/injection, schedule: Q01DX008 (ip), vehicle: Klucel (hydroxypropylcellulose) (HPC) 86 % of control | dose: 400.0 mg/kg/injection, schedule: Q01DX009 (ip), vehicle: Klucel (hydroxypropylcellulose) (HPC) 97 % of control | [13] 96 % of control

CC(C)CCCCCc1ccc(OCCOc2ccc(C(=O)Nc3ccc(S(=O)(=O)F)cc3N)cc2)cc1
inactive: dose: 100.0 mg/kg/injection, schedule: Q01DX009 (ip), vehicle: saline sonified 107 % of control | [8] 98 % of control | [14] 100 % of control | [9] 96 % of control | dose: 400.0 mg/kg/injection, schedule: Q01DX009 (ip), vehicle: saline sonified 98 % of control | [13] 94 % of control

COC1OC2COC(c3ccccc3)OC2C2OC12 (stereo not drawn)
inactive: [15] 94 % of control | dose: 100.0 mg/kg/injection, schedule: Q01DX009 (ip), vehicle: saline with Tween-80 102 % of control | [12] 100 % of control and 90 % of control | dose: 100.0 mg/kg/injection, schedule: Q04DX003 (ip), vehicle: saline with Tween-80 91 % of control and 86 % of control | dose: 200.0 mg/kg/injection, schedule: Q01DX001 (ip), vehicle: saline with Tween-80 88 % of control | dose: 200.0 mg/kg/injection, schedule: Q01DX009 (ip), vehicle: saline with Tween-80 102 % of control | [10] 96 % of control and 111 % of control | dose: 200.0 mg/kg/injection, schedule: Q04DX003 (ip), vehicle: saline with Tween-80 100 % of control and 88 % of control | [16] 88 % of control | dose: 400.0 mg/kg/injection, schedule: Q01DX009 (ip), vehicle: saline with Tween-80 97 % of control | [11] 100 % of control and 97 % of control | dose: 400.0 mg/kg/injection, schedule: Q04DX003 (ip), vehicle: saline with Tween-80 90 % of control and 93 % of control

N#C/C(=C\C1C(Cl)CCCC1Cl)C1CCC([N+](=O)[O-])CC1 (stereo not drawn)
inactive: [12] 101 % of control | [10] 97 % of control | [11] 101 % of control

O=S(=O)(c1ccccc1)C(CC(S(=O)(=O)c1ccccc1)S(=O)(=O)c1ccccc1)S(=O)(=O)c1ccccc1
inactive: [12] 119 % of control | [10] 97 % of control | [11] 90 % of control

O=C(O)C1C(C(=O)O)C2(Cl)C(Cl)=C(Cl)C1(Cl)C2(Cl)Cl.[Mn] (stereo not drawn)
inactive: dose: 44.0 mg/kg/injection, schedule: Q01DX009 (ip), vehicle: saline 107 % of control | dose: 50.0 mg/kg/injection, schedule: Q01DX009 (ip), vehicle: saline sonified 114 % of control | dose: 66.0 mg/kg/injection, schedule: Q01DX009 (ip), vehicle: saline 105 % of control | [1] 105 % of control | [8] 97 % of control | dose: 150.0 mg/kg/injection, schedule: Q01DX009 (ip), vehicle: saline 112 % of control | [14] 104 % of control | [9] 95 % of control

CC12CC(C(O)(C(F)(F)F)C(F)(F)F)C(=O)C=C1CCC1C2CCC2(C)C(C(=O)CC(O)(C(F)(F)F)C(F)(F)F)CCC12 (stereo not drawn)
inactive: dose: 100.0 mg/kg/injection, schedule: Q01DX001 (sc), vehicle: steriod suspending solution 103 % of control | dose: 200.0 mg/kg/injection, schedule: Q01DX001 (sc), vehicle: steriod suspending solution 103 % of control | dose: 400.0 mg/kg/injection, schedule: Q01DX001 (sc), vehicle: steriod suspending solution 101 % of control

CCCCCCCCS(=O)(O)=S.[Fe]
inactive: dose: 75.0 mg/kg/injection, schedule: Q01DX001 (ip), vehicle: saline 93 % of control | dose: 150.0 mg/kg/injection, schedule: Q01DX001 (ip), vehicle: saline 91 % of control | dose: 300.0 mg/kg/injection, schedule: Q01DX001 (ip), vehicle: saline 91 % of control

CCCCCCCCCCCC(C1CCC(C)CC1)C1CCC(C)CC1 (stereo not drawn)
inactive: [15] 95 % of control | [16] 89 % of control

CCOC(CNC(=O)CC(C)=O)OCC
inactive: [1] 96 % of control | dose: 100.0 mg/kg/injection, schedule: Q04DX003 (ip), vehicle: saline 104 % of control | [2] 104 % of control | dose: 200.0 mg/kg/injection, schedule: Q04DX003 (ip), vehicle: saline 108 % of control | dose: 400.0 mg/kg/injection, schedule: Q01DX009 (ip), vehicle: saline 98 % of control | dose: 400.0 mg/kg/injection, schedule: Q04DX003 (ip), vehicle: saline 103 % of control
